# “Also recorded” adds a separate entry of the source.
# System: Cln3^Δex7/8 mice
# Test: SubC burden (immunohistochemistry) in brain of Cln3^Δex7/8 mice
# Type: in vivo, mouse
# Experimental: Specific experimental details are included in figure legends. In general, after collection and preparation, MEFs and PNCs were dosed with vehicle or AF38469 (40 nM, 400 nM. or 4 μM) on DIV3 and DIV5. On DIV7, cells were treated with the following dyes: Hoechst 33342 (1:1000 dilution), LysoTrackerT™ Red DND-99 (1:10,000 dilution), fixed, and imaged. Mice were given vehicle or AF38469 (78.125 μg/ml, 3.125 μg/ml, 0.3125 μg/ml or 0.03125 μg/ml equating approximately to 250 μg/mouse/day, 10 μg/mouse/day, 1 μg/mouse/day, and […], respectively, given a mouse's daily water intake of approximately 3.2 ml per day) in drinking water beginning at wean. Body weight was measured bi-weekly, and a force actimeter test was performed on Cln2^R207X mice at 10 weeks of age. Body weight was measured every month for Cln3^Δex7/8 mice. At 11 and 16 weeks of age, respectively, Cln2^R207X and Cln3^Δex7/8 mice along with age matched wild type control mice were CO2 euthanized and intracardially perfused with PBS. Brains were collected and placed on a 1 mm sagittal brain block. Brains were sliced at the midline and 3 mm right of the midline. One hemisphere was fixed in 4% PFA and sectioned at 50 microns on a vibratome. Immunohistochemistry was performed on free-floating sections. For mitochondrial ATP synthase subunit C (SubC), glial fibrillary acidic protein (GFAP), and cluster of differentiation 68 (CD68) immunolabeling, primary antibodies included anti-SubC (Abcam, ab181243; 1:1000), anti-GFAP (Dako, Z0334; 1:5000), anti-CD68 (AbD Serotec, MCA1957; 1:2000), and secondary antibodies included anti-rabbit biotinylated (Vector Labs, BA-1000 1:1000) and anti-rat (Vector Labs, BA-9400 1:1000). Coverslips were mounted on slides using antifade-mounting media and were stored in the dark before imaging. Sections were imaged and analyzed using an Aperio Digital Pathology Slide Scanner (AT2) and associated software. Images were extracted from S1BF of the somatosensory cortex and the VPM/VPL of the thalamus, with multiple images taken of multiple tissues from each animal.
# Short-term chronic treatment with AF38469 reduces storage material burden in Cln2^R207X and Cln3^Δex7/8 mice. Beginning at wean, wild type and Cln2^R207X mice were treated with vehicle (0.2408% DMSO) or AF38469 (0.03125 μg/ml, 0.3125 μg/ml, 3.125 μg/ml, 78.125 μg/ml) continuously through the drinking water continuing until sacrifice at 11 weeks. Beginning at wean, wild type and Cln3^Δex7/8 mice were treated with vehicle (0.2408% DMSO) or AF38469 (0.03125 μg/ml, 0.3125 μg/ml, 3.125 μg/ml, 78.125 μg/ml) continuously through the drinking water until sacrifice at 16 weeks. Upon sacrifice, one hemisphere of brain was sectioned at 50 microns on a vibratome; DAB staining immunohistochemistry was then performed using anti-SubC (Abcam, ab181243) anti-rabbit biotinylated (Vector Labs, BA-1000). Sections were imaged and analyzed using an Aperio Digital Pathology Slide Scanner (AT2) and associated software. Images were extracted from S1BF of the somatosensory cortex and the VPM/VPL of the thalamus, key brain regions for Batten disease pathology. Percent area of immunoreactivity were quantified using a threshold analysis in ImageJ™. Statistical analyses were performed using GraphPad Prism™ (v8.4.3; San Diego, CA). […] Increasing concentrations of AF38469 and corresponding genotypes are shown along the x-axis. Nested one-way ANOVA. […]
Structure (SMILES),"SubC burden (LM11A-31 0.6 mg/mL, VPM/VPL of the thalamus)","Subunit C burden (LM11A-31 0.6 mg/mL, somatosensory cortex (S1BF))","Subunit C burden (0.03125 μg/ml, 0.3125 μg/ml in drinking water, somatosensory cortex and VPM/VPL of the thalamus, 16 weeks)","Subunit C burden (3.125 μg/ml in drinking water, somatosensory cortex and VPM/VPL of the thalamus, 16 weeks)","Subunit C burden (3.125 μg/ml, 78.125 μg/ml in drinking water, somatosensory cortex, 16 weeks)"
"CC[C@H](C)[C@H](N)C(=O)NCCN1CCOCC1 [LM11A-31, N-[2-(morpholin-4-yl)ethyl]-L-isoleucinamide]",decrease; also recorded: decreasing trend,increase; also recorded: did not significantly decreased,,,
"Cc1cccc(NC(=O)c2ccc(C(F)(F)F)cc2C(=O)O)n1 [AF38469, 2-((6-methylpyridin-2-yl)carbamoyl)-5-(trifluoromethyl)benzoic acid]",,,significantly decreased,significantly decreased,significantly decreased

# Reference: US20240197700A1, “Methods and Compositions for Treating Lysosomal Storage Disorders” (Sanford Health, priority 2021, published 2024)
